Numbers after ± are expanded uncertainties.

Here are results for ten molecules from the NIST ThermoML archive (doi:10.1021/je700190m).

A short description of the data set: wn = mass fraction of the nth substance listed. The settings on record: 310 K; 101.3 kPa; Liquid; Concentric cylinders viscometry; w1 = 0.1.

Consider `OC[C@H]1O[C@@](CO)(O[C@H]2O[C@H](CO)[C@@H](O)[C@H](O)[C@H]2O)[C@@H](O)[C@@H]1O` [D-sucrose] + O, for which the viscosity is on record as 1.06 ± 0.21 mPa·s.
Next, `OC[C@@H](O)[C@@H](O)[C@H](O)[C@@H](O)CO` [D-sorbitol] + O: 1.02 ± 0.21 mPa·s; `O.O.O.O.O.OC[C@H]1O[C@H](OC[C@H]2O[C@H](O[C@]3(CO)O[C@H](CO)[C@@H](O)[C@@H]3O)[C@H](O)[C@@H](O)[C@@H]2O)[C@H](O)[C@@H](O)[C@H]1O` [D-raffinose, pentahydrate] + O: 1.22 ± 0.25 mPa·s; `O=C[C@H](O)[C@@H](O)[C@H](O)[C@H](O)CO` [D-glucose] + O: 1 ± 0.2 mPa·s.
For the molecule `O=C(CO)[C@@H](O)[C@H](O)[C@@H](CO)O[C@H]1O[C@H](CO)[C@@H](O)[C@H](O)[C@H]1O` [leucrose] + O, the viscosity was 1.05 ± 0.21 mPa·s.
As for `OC[C@@H](O)[C@@H](O[C@H]1O[C@H](CO)[C@@H](O)[C@H](O)[C@H]1O)[C@H](O)[C@@H](O)CO` [4-O-α-D-glucopyranosyl-D-glucitol] + O, the figure is 1.08 ± 0.22 mPa·s.
As for `O.O.OC[C@H]1O[C@H](O[C@H]2O[C@H](CO)[C@@H](O)[C@H](O)[C@H]2O)[C@H](O)[C@@H](O)[C@@H]1O` [D-(+)-trehalose dihydrate] + O, the figure is 1.1 ± 0.22 mPa·s; as for `OC[C@@H](O)[C@@H](O)[C@H](O)[C@H](O)CO` [mannitol] + O, 1.03 ± 0.21 mPa·s; as for `O=C[C@H](O)[C@@H](O)[C@H](O[C@@H]1O[C@H](CO)[C@H](O)[C@H](O)[C@H]1O)[C@H](O)CO` [4-O-β-D-galactopyranosyl-D-glucose] + O, 1.16 ± 0.23 mPa·s.
Next, `OC[C@@H](O)[C@H](O)[C@@H](O)CO` [xylitol] + O: 1.03 ± 0.21 mPa·s.
